Test results as given in publication PMC6040651 (Pediatric blood & cancer, 2018).
Read-outs that look alike come from different tables or passages of the source. Each block holds one compound with its values, some of them ahead of it.

Experiments:
[1] = Isotretinoin pharmacokinetics, single sample on cycle 1 day 14; details: human, serum, oral, 80 mg/m^2/dose, 4 hr after the last dose of isotretinoin in cycle 1 (80 mg/m^2/dose twice daily), 12 patients
[2] = test system: acetylated histone H3 in PBMC; test: PBMC histone acetylation; assay type: in vivo, patients; details: for Mean percent change in histone acetylation (HA) levels from baseline: PBMC
[3] = test system: refractory/recurrent neuroblastoma; test: Antitumor activity; assay type: in vivo, patients; details: vorinostat + isotretinoin
[4] = dosed continuously; pediatric relapsed solid tumors; cited from earlier work
[5] = test system: histone acetylation in PBMC; details: cited from earlier work
[6] = test system: xenografts from neuroblastoma cell lines; details: xenografts from four of six neuroblastoma cell lines; cited from earlier work
[7] = Vorinostat serum pharmacokinetics, cycle 1
[8] = Phase I dose escalation and toxicity assessment; details: dose level 5 (430 mg/m^2/dose) + isotretinoin, n = 6
[9] = all dose levels, n = 23/28, geometric mean (95% confidence interval), oral, cycle 1
[10] = dose level 1 (180 mg/m^2/dose), n = 6/7, geometric mean (95% confidence interval), oral, cycle 1
[11] = dose level 5—MTD (430 mg/m^2/dose), n = 9/12, geometric mean (95% confidence interval), oral, cycle 1

- concentration at 4 h ([1]; Median serum concentration): 830 ng/mL
- concentration at 4 h ([1]; Serum concentration, range): 190 to 1400 ng/mL
SMILES: CC1=C(/C=C/C(C)=C/C=C/C(C)=C\C(=O)O)C(C)(C)CCC1 [isotretinoin, cis-13-retinoic acid]

SMILES: O=C(CCCCCCC(=O)Nc1ccccc1)NO [vorinostat, suberoylanilide hydroxamic acid]
- Percent change from baseline in HA levels, dose level 5 compared to dose levels 1–4 ([2]; 1 hr post treatment, P = 0.009, difference persisted at hours 6 and 24): significantly greater
- Mean percent change in histone acetylation (HA) levels from baseline ([2]; dose level 5, hour 1, 6 patients): 18.5%
- Mean percent change in histone acetylation (HA) levels from baseline ([2]; dose level 5, hour 6, 6 patients): 21.9%
- Mean percent change in histone acetylation (HA) levels from baseline ([2]; dose level 5, hour 24, 5 patients): 14.4%
- Mean percent change in histone acetylation (HA) levels from baseline ([2]; dose levels 1–4, hour 1, 7 patients): –3.9%
- Mean percent change in histone acetylation (HA) levels from baseline ([2]; dose levels 1–4, hour 6, 5 patients): –2.9%
- Objective responses (CR or PR) ([3]; all dose levels, 19 patients evaluable for response): No objective responses
- Patients who received 11–15 cycles of therapy ([3]; 7/29 patients): 24%
- Patients completing ≥4 cycles without tumor progression ([3]; 11 of the 29 patients): 38%
- 6-month PFS rate ([3]; entire cohort of 29 patients): 0.36 ± 0.09
- Median PFS ([3]; entire cohort of 29 patients, 95% confidence interval 1.6–11.0 months): 2.0 months
- MTD of vorinostat alone [4]: 230 mg/m^2/day
- Histone acetylation in PBMC ([5]; continuous vorinostat MTD (230 mg/m^2/dose)): only transient PBMC HA was observed
- Histone acetylation in PBMC ([5]; highest continuous dose level of vorinostat (300 mg/m^2/dose)): consistent PBMC HA
- Event-free survival compared to control-treated mice [6]: statistically significant prolongation in event-free survival
- Clearance (Cl F obs) [7, 9]: 151 (115, 197) l/hr
- Cmax [7, 9]: 428 (348, 526) ng/ml
- Clearance (Cl F obs) [7, 10]: 152 (93, 250) l/hr
- t½ [7, 10]: 2.6 (1.7, 4.0) hr
- Clearance (Cl F obs) ([7]; dose level 2 (230 mg/m^2/dose), n = 2/3, geometric mean (95% confidence interval), oral, cycle 1): 181 (76, 427) l/hr
- Clearance (Cl F obs) ([7]; dose level 3 (300 mg/m^2/dose), n = 3/3, geometric mean (95% confidence interval), oral, cycle 1): 129 (64, 260) l/hr
- Clearance (Cl F obs) ([7]; dose level 4 (360 mg/m^2/dose), n = 3/3, geometric mean (95% confidence interval), oral, cycle 1): 322 (159, 649) l/hr
- Clearance (Cl F obs) [7, 11]: 118 (79, 177) l/hr
- t½ [7, 11]: 3.2 (2.3, 4.5) hr
- AUC(0-inf) ([7]; human, serum, oral): 930 to 5780 ng·h/mL
- Cmax ([7]; human, serum, oral): 158 to 980 ng/mL
- clearance ([7]; human, serum, oral): 967 to 7250 mL/min
- half-life ([7]; human, serum, oral): 72 to 606 min
- AUC(0-inf) ([7]; human, serum, po): 2170 ng·h/mL
- AUC(0-inf) ([7]; human, serum, po, 180 mg/m2): 1350 ng·h/mL
- AUC(0-inf) ([7]; human, serum, po, 230 mg/m2): 1670 ng·h/mL
- half-life ([7]; human, serum, po, 230 mg/m2): 144 min
- AUC(0-inf) ([7]; human, serum, po, 300 mg/m2): 2640 ng·h/mL
- Cmax ([7]; human, serum, po, 300 mg/m2): 552 ng/mL
- AUC(0-inf) ([7]; human, serum, po, 430 mg/m2): 3250 ng·h/mL
- Cmax ([7]; human, serum, po, 430 mg/m2): 587 ng/mL
- Number of patients with grade 3+ upper respiratory infection ([8]; all cycles): 1
- Number of patients with grade 3+ upper respiratory infection ([8]; first cycle): 0
